Source: PMC10412597, “Small molecule branched-chain ketoacid dehydrogenase kinase (BDK) inhibitors with opposing effects on BDK protein levels” (Nature Communications, 2023)

How the values were obtained:
MAPK15 = MAPK15 (Homo sapiens, UniProt Q8TD08); set-up: Invitrogen Lantha screen kinase binding, per cent inhibition of binding; conditions: 10 µM, binder
Experimental: (§1) To discover a potent and selective BDK inhibitor, a subset of the Pfizer compound collection was screened. […] Off target activity was assessed in both CEREP and kinase panels (Supplementary Tables 2, 3).

[1] = target: T1, Protein kinase, AMP-activated, alpha 1 beta 1 gamma 2 complex (Homo sapiens, UniProt Q13131+Q9UGJ0+Q9Y478); set-up: Invitrogen Lantha screen kinase binding, per cent inhibition of binding; conditions: 10 µM, binder
T1 construct: gene PRKAA1
Experimental: as §1

TGFBR2 = TGFBR2 (Homo sapiens, UniProt P37173); set-up: Invitrogen Lantha screen kinase binding, per cent inhibition of binding; conditions: 10 µM, binder
Experimental: as §1

KDR = KDR (Homo sapiens, UniProt P35968); set-up: Invitrogen kinase panel, per cent inhibition of kinase activity; conditions: 10 µM, inhibitor
Experimental: as §1

AURKA = target: T2, AURKA (Homo sapiens, UniProt O14965); set-up: Invitrogen kinase panel, per cent inhibition of kinase activity; conditions: 10 µM, inhibitor
T2 sequence (O14965 1-403): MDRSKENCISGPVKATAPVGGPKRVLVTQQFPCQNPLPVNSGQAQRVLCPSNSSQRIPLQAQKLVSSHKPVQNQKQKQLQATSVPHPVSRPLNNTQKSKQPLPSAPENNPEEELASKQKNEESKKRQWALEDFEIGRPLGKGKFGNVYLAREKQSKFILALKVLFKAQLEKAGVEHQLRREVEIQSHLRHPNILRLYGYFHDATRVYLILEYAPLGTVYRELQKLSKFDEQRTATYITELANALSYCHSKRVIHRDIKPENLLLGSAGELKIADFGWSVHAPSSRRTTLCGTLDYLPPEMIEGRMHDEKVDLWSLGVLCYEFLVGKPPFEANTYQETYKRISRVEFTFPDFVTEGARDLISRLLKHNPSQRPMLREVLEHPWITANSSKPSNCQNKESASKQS
Experimental: as §1

PIK3C2B = PIK3C2B (Homo sapiens, UniProt O00750); set-up: Invitrogen kinase panel, per cent inhibition of kinase activity; conditions: inhibitor
Experimental: as §1

MKNK1 = MKNK1 (Homo sapiens, UniProt Q9BUB5); set-up: Invitrogen kinase panel, per cent inhibition of kinase activity; conditions: 10 µM, inhibitor
Experimental: as §1

NEK6 = NEK6 (Homo sapiens, UniProt Q9HC98); set-up: Invitrogen kinase panel, per cent inhibition of kinase activity; conditions: 10 µM, inhibitor
Experimental: as §1

MARK3 = MARK3 (Homo sapiens, UniProt P27448); set-up: Invitrogen kinase panel, per cent inhibition of kinase activity; conditions: 10 µM, inhibitor
Experimental: as §1

CSK tyrosine Kinase = CSK tyrosine Kinase (Homo sapiens, UniProt P41240); set-up: Invitrogen kinase panel, per cent inhibition of kinase activity; conditions: 10 µM, inhibitor
Experimental: as §1

MSK1 = target: T3, MSK1 (Homo sapiens, UniProt O75582); set-up: Invitrogen kinase panel, per cent inhibition of kinase activity; conditions: 10 µM, inhibitor
T3 construct: gene RPS6KA5
Experimental: as §1

Rsk2 = target: T4, Rsk2 (Homo sapiens, UniProt P51812); set-up: Invitrogen kinase panel, per cent inhibition of kinase activity; conditions: 10 µM, inhibitor
T4 construct: gene RPS6KA3
Experimental: as §1

JNK1 = target: T5, JNK1 (Homo sapiens, UniProt P45983); set-up: Invitrogen kinase panel, per cent inhibition of kinase activity; conditions: 10 µM, inhibitor
T5 construct: gene MAPK8
Experimental: as §1

[2] = target: T6, Phosphorylase B kinase gamma catalytic chain skeletal muscle isoform (Homo sapiens, UniProt Q16816); set-up: Invitrogen kinase panel, per cent inhibition of kinase activity; conditions: 10 µM, inhibitor
T6 construct: gene PHKG1
Experimental: as §1

PIK3C3 = PIK3C3 (Homo sapiens, UniProt Q8NEB9); set-up: Invitrogen kinase panel, per cent inhibition of kinase activity; conditions: 10 µM, inhibitor
Experimental: as §1

PLK1 = PLK1 (Homo sapiens, UniProt P53350); set-up: Invitrogen kinase panel, per cent inhibition of kinase activity; conditions: 10 µM, inhibitor
Experimental: as §1

AKT2 = AKT2 (Homo sapiens, UniProt P31751); set-up: Invitrogen kinase panel, per cent inhibition of kinase activity; conditions: 10 µM, inhibitor
Experimental: as §1

MAPK12 = MAPK12 (Homo sapiens, UniProt P53778); set-up: Invitrogen kinase panel, per cent inhibition of kinase activity; conditions: 10 µM, inhibitor
Experimental: as §1

ABL1 = ABL1 (Homo sapiens, UniProt P00519); set-up: Invitrogen kinase panel, per cent inhibition of kinase activity; conditions: 10 µM, inhibitor
Experimental: as §1

SRC = SRC (Homo sapiens, UniProt P12931); set-up: Invitrogen kinase panel, per cent inhibition of kinase activity; conditions: 10 µM, inhibitor
Experimental: as §1

MAPK14 = MAPK14 (Homo sapiens, UniProt Q16539); set-up: Invitrogen kinase panel, per cent inhibition of kinase activity; conditions: 10 µM, inhibitor
Experimental: as §1

CDK2/Cyclin-A = CDK2/Cyclin-A (Homo sapiens, UniProt P24941); set-up: Invitrogen kinase panel, per cent inhibition of kinase activity; conditions: 10 µM, inhibitor
Experimental: as §1

PRKACA = PRKACA (Homo sapiens, UniProt P17612); set-up: Invitrogen kinase panel, per cent inhibition of kinase activity; conditions: 10 µM, inhibitor
Experimental: as §1

KDR, sequence (P35968 whole entry): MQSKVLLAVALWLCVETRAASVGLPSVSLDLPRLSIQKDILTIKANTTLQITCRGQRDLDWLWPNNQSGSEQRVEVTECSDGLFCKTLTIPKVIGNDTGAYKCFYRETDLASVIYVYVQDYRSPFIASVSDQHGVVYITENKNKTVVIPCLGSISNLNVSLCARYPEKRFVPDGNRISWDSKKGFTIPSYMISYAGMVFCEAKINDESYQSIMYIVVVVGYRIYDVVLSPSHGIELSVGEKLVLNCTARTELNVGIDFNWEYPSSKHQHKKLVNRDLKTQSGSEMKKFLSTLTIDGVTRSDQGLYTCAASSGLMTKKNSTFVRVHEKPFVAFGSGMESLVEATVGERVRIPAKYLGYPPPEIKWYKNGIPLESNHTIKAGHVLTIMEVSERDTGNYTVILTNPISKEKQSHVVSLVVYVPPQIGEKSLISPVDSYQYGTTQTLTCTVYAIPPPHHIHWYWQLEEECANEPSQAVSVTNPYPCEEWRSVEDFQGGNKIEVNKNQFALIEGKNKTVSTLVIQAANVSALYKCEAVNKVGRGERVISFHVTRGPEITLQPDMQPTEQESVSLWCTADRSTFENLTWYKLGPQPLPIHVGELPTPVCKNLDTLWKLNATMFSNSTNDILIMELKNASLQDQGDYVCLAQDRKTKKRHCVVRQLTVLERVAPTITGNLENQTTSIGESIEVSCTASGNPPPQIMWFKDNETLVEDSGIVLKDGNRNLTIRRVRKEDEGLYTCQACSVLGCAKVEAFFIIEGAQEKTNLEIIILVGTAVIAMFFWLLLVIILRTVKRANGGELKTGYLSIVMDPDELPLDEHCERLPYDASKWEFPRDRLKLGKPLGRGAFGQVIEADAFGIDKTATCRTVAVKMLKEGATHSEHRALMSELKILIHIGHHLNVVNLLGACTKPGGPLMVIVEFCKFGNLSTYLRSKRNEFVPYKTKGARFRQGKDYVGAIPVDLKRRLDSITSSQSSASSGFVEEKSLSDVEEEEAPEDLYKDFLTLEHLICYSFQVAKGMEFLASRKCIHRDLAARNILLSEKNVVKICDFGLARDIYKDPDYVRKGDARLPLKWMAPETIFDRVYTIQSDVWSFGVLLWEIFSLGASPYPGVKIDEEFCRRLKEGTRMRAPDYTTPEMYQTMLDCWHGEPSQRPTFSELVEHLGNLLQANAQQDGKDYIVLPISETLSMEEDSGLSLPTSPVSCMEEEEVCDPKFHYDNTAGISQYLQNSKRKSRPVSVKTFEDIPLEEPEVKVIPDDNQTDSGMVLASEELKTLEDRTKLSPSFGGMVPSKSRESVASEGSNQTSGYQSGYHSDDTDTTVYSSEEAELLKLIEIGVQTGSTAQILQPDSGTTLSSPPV
MAPK14, sequence (Q16539 whole entry): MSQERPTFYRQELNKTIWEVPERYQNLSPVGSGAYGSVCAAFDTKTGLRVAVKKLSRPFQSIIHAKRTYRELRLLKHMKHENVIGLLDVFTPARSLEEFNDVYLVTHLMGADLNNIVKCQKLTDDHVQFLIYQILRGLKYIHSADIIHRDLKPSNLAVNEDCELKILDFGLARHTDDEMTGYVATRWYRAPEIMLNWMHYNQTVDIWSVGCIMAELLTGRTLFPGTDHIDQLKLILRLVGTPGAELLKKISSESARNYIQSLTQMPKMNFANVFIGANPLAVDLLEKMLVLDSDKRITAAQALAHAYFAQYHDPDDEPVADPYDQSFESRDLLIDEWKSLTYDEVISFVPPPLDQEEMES
ABL1, sequence (P00519 whole entry): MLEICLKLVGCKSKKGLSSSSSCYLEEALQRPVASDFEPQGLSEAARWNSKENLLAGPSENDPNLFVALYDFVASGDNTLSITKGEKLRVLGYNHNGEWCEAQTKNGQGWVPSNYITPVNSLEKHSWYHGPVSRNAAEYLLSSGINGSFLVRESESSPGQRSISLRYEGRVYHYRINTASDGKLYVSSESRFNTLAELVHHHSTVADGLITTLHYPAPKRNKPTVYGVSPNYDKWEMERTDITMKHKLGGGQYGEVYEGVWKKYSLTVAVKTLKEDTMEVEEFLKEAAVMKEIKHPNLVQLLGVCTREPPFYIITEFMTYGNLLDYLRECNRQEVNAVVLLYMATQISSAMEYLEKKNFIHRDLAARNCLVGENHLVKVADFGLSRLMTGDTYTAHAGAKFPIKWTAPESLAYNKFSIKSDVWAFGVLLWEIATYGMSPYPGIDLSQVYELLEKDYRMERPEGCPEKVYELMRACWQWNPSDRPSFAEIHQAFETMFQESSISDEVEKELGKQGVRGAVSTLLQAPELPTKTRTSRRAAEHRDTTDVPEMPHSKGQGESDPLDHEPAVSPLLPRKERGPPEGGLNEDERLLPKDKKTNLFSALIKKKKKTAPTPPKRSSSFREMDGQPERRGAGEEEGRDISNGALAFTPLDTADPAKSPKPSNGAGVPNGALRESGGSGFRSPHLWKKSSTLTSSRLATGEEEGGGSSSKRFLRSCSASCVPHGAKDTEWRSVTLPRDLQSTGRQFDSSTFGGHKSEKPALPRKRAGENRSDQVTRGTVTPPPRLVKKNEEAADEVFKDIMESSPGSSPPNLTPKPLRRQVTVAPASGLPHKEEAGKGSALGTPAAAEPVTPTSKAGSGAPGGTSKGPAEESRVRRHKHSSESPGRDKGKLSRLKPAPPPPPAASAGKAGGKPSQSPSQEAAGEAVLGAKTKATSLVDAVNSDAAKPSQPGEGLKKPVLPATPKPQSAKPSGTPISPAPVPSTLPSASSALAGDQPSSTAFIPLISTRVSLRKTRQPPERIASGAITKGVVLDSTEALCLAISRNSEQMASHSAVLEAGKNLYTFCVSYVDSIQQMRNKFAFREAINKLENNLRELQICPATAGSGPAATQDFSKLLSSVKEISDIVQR
SRC, sequence (P12931 whole entry): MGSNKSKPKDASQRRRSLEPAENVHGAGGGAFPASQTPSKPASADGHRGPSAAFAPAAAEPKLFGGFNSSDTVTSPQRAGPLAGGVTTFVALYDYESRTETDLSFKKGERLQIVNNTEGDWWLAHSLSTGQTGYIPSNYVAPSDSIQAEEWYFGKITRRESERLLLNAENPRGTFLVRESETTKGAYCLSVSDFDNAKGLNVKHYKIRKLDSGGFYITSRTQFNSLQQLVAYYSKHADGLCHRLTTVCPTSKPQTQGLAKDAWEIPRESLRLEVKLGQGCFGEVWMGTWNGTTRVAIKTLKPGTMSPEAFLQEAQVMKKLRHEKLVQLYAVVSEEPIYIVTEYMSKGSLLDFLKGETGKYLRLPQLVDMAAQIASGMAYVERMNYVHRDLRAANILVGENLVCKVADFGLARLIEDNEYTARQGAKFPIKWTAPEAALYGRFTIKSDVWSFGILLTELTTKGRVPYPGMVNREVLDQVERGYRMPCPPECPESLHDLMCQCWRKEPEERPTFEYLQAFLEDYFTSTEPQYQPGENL
T1 sequence (Q13131 whole entry): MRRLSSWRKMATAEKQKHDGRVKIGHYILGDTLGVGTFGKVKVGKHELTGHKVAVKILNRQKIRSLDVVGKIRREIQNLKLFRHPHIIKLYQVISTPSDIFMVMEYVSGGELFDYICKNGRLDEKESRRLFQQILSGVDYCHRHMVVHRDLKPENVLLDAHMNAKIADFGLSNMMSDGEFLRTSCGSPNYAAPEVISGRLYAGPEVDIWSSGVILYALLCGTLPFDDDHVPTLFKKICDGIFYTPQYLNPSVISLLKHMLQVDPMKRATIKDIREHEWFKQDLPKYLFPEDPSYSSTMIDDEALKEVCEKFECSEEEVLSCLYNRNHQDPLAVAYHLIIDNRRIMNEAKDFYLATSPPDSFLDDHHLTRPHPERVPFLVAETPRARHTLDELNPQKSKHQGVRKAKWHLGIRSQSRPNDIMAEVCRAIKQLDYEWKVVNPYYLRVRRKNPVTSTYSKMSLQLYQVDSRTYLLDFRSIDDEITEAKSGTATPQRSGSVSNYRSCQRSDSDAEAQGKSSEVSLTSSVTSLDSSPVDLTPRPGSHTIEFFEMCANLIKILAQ
T1 sequence (Q9UGJ0 whole entry): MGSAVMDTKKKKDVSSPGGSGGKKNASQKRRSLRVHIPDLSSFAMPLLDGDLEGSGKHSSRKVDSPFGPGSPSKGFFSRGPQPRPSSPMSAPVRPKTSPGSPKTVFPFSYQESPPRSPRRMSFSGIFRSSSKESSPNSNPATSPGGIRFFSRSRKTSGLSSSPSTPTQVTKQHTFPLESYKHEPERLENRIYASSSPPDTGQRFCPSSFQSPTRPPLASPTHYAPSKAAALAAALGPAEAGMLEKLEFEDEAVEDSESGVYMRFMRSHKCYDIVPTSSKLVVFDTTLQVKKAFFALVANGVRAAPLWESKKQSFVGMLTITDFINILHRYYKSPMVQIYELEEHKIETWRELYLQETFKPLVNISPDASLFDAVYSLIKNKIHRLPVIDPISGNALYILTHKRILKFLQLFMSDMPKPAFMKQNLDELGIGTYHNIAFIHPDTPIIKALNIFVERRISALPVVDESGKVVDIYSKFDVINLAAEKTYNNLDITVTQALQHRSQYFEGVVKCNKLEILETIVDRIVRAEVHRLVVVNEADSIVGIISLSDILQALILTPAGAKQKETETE
T1 sequence (Q9Y478 whole entry): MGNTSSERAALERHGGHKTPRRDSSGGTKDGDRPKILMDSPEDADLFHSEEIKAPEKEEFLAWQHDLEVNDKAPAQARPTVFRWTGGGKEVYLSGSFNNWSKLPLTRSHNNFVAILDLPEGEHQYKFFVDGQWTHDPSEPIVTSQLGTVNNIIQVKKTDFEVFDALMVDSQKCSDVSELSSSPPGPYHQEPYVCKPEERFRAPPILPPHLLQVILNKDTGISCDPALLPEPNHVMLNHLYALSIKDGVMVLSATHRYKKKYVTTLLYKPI

## CCC1(COc2ccc(-c3csc(-c4ccccc4C(=O)O)n3)cn2)CC1 [PF-07247685, 2-(4-{6-[(1-ethylcyclopropyl)methoxy]pyridin-3-yl}-1,3-thiazol-2-yl)benzoic acid]
MAPK15
  Lantha Binding % Inhibition PF-07247685: 2.4%
[1]
  Lantha Binding % Inhibition PF-07247685: 0.5%
TGFBR2
  Lantha Binding % Inhibition PF-07247685: 15.1%
KDR
  ATP = 1 mM % Inhibition PF-07247685: 0.1%
  ATP = Km % Inhibition PF-07247685: 2.0%
AURKA
  ATP = 1 mM % Inhibition PF-07247685: 2.2%
  ATP = Km % Inhibition PF-07247685: 8.9%
PIK3C2B
  ATP = 10 uM % Inhibition PF-07247685: 2.0%
MKNK1
  ATP = Km % Inhibition PF-07247685: 0.5%
NEK6
  ATP = Km % Inhibition PF-07247685: 1.2%
MARK3
  ATP = Km % Inhibition PF-07247685: 2.1%
CSK tyrosine Kinase
  ATP = Km % Inhibition PF-07247685: 4.3%
MSK1
  ATP = Km % Inhibition PF-07247685: -1.4%
Rsk2
  ATP = Km % Inhibition PF-07247685: -1.6%
JNK1
  ATP = 100 uM % Inhibition PF-07247685: 2.1%
[2]
  ATP = Km % Inhibition PF-07247685: 2.2%
PIK3C3
  ATP = Km % Inhibition PF-07247685: 3.0%
PLK1
  ATP = Km % Inhibition PF-07247685: 10.1%
AKT2
  ATP = Km % Inhibition PF-07247685: 5.5%
MAPK12
  ATP = Km % Inhibition PF-07247685: 4.6%
ABL1
  ATP = 1 mM % Inhibition PF-07247685: 0.9%
  ATP = Km % Inhibition PF-07247685: 5.1%
SRC
  ATP = 1 mM % Inhibition PF-07247685: -1.0%
  ATP = Km % Inhibition PF-07247685: 17.3%
MAPK14
  ATP = 1 mM % Inhibition PF-07247685: 7.1%
  ATP = Km % Inhibition PF-07247685: 3.5%
CDK2/Cyclin-A
  ATP = 1 mM % Inhibition PF-07247685: -1.4%
  ATP = Km % Inhibition PF-07247685: 1.2%
PRKACA
  ATP = 1 mM % Inhibition PF-07247685: 0.3%
  ATP = Km % Inhibition PF-07247685: 2.3%

## O=C(O)c1sc2cc(F)sc2c1Cl [PF-07208254, 3-chloro-5-fluorothieno[3,2-b]thiophene-2-carboxylic acid]
MAPK15
  Lantha Binding % Inhibition PF-07208254: 18.3%
[1]
  Lantha Binding % Inhibition PF-07208254: 5.9%
TGFBR2
  Lantha Binding % Inhibition PF-07208254: 15.9%
KDR
  ATP = 1 mM % Inhibition PF-07208254: 5.6%
  ATP = Km % Inhibition PF-07208254: 1.1%
AURKA
  ATP = 1 mM % Inhibition PF-07208254: -2.6%
  ATP = Km % Inhibition PF-07208254: 9.4%
PIK3C2B
  ATP = 10 uM % Inhibition PF-07208254: 3.5%
MKNK1
  ATP = Km % Inhibition PF-07208254: 15.1%
NEK6
  ATP = Km % Inhibition PF-07208254: 7.1%
MARK3
  ATP = Km % Inhibition PF-07208254: 5.0%
CSK tyrosine Kinase
  ATP = Km % Inhibition PF-07208254: 2.9%
MSK1
  ATP = Km % Inhibition PF-07208254: 2.7%
Rsk2
  ATP = Km % Inhibition PF-07208254: -0.7%
JNK1
  ATP = 100 uM % Inhibition PF-07208254: -0.6%
[2]
  ATP = Km % Inhibition PF-07208254: 1.8%
PIK3C3
  ATP = Km % Inhibition PF-07208254: 7.3%
PLK1
  ATP = Km % Inhibition PF-07208254: 1.8%
AKT2
  ATP = Km % Inhibition PF-07208254: 0.2%
MAPK12
  ATP = Km % Inhibition PF-07208254: 13.3%
ABL1
  ATP = 1 mM % Inhibition PF-07208254: -0.5%
  ATP = Km % Inhibition PF-07208254: 9.0%
SRC
  ATP = 1 mM % Inhibition PF-07208254: -4.8%
  ATP = Km % Inhibition PF-07208254: 5.6%
MAPK14
  ATP = 1 mM % Inhibition PF-07208254: 4.0%
  ATP = Km % Inhibition PF-07208254: 3.0%
CDK2/Cyclin-A
  ATP = 1 mM % Inhibition PF-07208254: -1.2%
  ATP = Km % Inhibition PF-07208254: 14.6%
PRKACA
  ATP = 1 mM % Inhibition PF-07208254: -2.4%
  ATP = Km % Inhibition PF-07208254: 2.7%
